Experiments:
[1] = molecular target: T1, Nonstructural protein 5A (Hepatitis C virus) (UniProt Q5L478); assay: Inhibition of NS5A in HCV genotype 1b infected in human HuH7.5/Con1/SG-Neo(I)-hRluc2aUb cells assessed as inhibition of replicon levels at 1 uM incubated for 72 hrs by luciferase reporter gene assay relative to control; conditions: Hepatitis C virus subtype 1b
T1 sequence (whole entry): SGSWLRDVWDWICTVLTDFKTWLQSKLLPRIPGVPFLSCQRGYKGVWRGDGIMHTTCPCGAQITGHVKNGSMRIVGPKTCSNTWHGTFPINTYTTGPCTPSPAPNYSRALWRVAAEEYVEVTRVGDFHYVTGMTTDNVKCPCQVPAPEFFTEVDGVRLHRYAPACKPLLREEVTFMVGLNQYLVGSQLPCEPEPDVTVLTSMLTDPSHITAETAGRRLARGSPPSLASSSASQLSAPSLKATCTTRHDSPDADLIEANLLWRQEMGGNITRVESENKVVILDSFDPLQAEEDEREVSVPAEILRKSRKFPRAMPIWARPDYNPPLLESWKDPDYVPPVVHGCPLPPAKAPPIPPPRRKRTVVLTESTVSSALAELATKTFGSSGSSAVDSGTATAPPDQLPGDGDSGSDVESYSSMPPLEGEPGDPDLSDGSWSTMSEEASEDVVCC

[2] = molecular target: T1, Nonstructural protein 5A (Hepatitis C virus); assay: Inhibition of NS5A in HCV genotype 2a infected in human Huh7.5/J6/JFH1/EMCVIRES/hRlucNeo cells assessed as inhibition of replicon levels at 1 uM incubated for 72 hrs by luciferase reporter gene assay; conditions: Hepatitis C virus subtype 2a
[3] = molecular target: T1, Nonstructural protein 5A (Hepatitis C virus); assay: Inhibition of NS5A in HCV genotype 1b infected in human HuH7.5/Con1/SG-Neo(I)-hRluc2aUb cells assessed as inhibition of replicon levels at 0.1 uM incubated for 72 hrs by luciferase reporter gene assay relative to control; conditions: Hepatitis C virus subtype 1b
[4] = Protein binding in human plasma; format: ADME, cell-free; conditions: read-out: PPB
CYP2C9 = CYP2C9 (Homo sapiens, UniProt P11712); assay: Inhibition of CYP2C9 in pooled human liver microsomes at 10 uM pre-incubated for 5 mins before NADPH addition and measured after 10 mins by UPLC-MS/MS analysis relative to control; format: ADME
Chain of CYP2C9 (P11712 whole entry): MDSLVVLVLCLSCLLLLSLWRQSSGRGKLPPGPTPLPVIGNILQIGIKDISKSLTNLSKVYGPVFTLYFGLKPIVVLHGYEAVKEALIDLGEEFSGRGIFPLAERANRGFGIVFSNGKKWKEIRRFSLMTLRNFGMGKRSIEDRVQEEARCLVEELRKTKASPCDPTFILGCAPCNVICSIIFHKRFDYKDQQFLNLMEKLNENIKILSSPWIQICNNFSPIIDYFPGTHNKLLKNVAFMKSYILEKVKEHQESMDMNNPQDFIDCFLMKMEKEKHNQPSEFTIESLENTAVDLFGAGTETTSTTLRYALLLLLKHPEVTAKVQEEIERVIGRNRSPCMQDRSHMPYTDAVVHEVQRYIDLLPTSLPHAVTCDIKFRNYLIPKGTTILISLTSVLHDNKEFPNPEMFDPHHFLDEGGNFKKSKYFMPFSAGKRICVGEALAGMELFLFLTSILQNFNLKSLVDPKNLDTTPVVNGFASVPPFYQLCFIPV

[5] = Cytotoxicity in human HepG2 cells assessed as inhibition of cell growth at 3 uM incubated for 72 hrs by CCK8 assay relative to control; format: cell-based; conditions: read-out: GI
[6] = Drug level in liver of Wistar rat at 10 mg/kg, po measured at 4 hrs by LC-MS/MS analysis; format: ADME, organism-based; conditions: read-out: Drug uptake
[7] = Volume of distribution at steady state in rat at 1 mg/kg, iv measured up to 24 hrs by LC-MS/MS analysis; format: ADME, organism-based; conditions: in vivo, read-out: Vdss
[8] = Ratio of dug level in liver to plasma of Wistar rat at 10 mg/kg, po measured at 4 hrs by LC-MS/MS analysis; format: ADME, organism-based
[9] = Cytotoxicity in human HepG2 cells assessed as inhibition of cell growth at 10 uM incubated for 72 hrs by CCK8 assay relative to control; format: cell-based; conditions: read-out: GI
[10] = Drug metabolism in human liver microsomes assessed as metabolic rate at 1 uM preincubated for 5 mins before NADPH addition and measured up to 30 mins by LC-MS/MS analysis; format: ADME, Microsome; conditions: 0.5 h
[11] = Drug level in plasma of Wistar rat at 10 mg/kg, po measured at 4 hrs by LC-MS/MS analysis; format: ADME, organism-based
[12] = AUC(last) in rat at 1 mg/kg, iv measured up to 24 hrs by LC-MS/MS analysis; format: ADME, organism-based; set-up: dose 1 mg/kg, route intravenous, time 0 - last; conditions: in vivo
[13] = Cmax in rat at 10 mg/kg, po measured up to 24 hrs by LC-MS/MS analysis; format: ADME, organism-based; set-up: dose 10 mg/kg, route oral; conditions: in vivo
[14] = Cytotoxicity in human HEK293 cells assessed as inhibition of cell growth at 10 uM incubated for 72 hrs by CCK8 assay relative to control; format: cell-based; conditions: read-out: GI
[15] = Oral bioavailability in rat at 10 mg/kg measured up to 24 hrs by LC-MS/MS analysis; format: ADME, organism-based; conditions: in vivo
CYP2D6 = CYP2D6 (Homo sapiens, UniProt P10635); assay: Inhibition of CYP2D6 in pooled human liver microsomes at 10 uM pre-incubated for 5 mins before NADPH addition and measured after 10 mins by UPLC-MS/MS analysis relative to control; format: ADME
Chain of CYP2D6 (P10635 whole entry): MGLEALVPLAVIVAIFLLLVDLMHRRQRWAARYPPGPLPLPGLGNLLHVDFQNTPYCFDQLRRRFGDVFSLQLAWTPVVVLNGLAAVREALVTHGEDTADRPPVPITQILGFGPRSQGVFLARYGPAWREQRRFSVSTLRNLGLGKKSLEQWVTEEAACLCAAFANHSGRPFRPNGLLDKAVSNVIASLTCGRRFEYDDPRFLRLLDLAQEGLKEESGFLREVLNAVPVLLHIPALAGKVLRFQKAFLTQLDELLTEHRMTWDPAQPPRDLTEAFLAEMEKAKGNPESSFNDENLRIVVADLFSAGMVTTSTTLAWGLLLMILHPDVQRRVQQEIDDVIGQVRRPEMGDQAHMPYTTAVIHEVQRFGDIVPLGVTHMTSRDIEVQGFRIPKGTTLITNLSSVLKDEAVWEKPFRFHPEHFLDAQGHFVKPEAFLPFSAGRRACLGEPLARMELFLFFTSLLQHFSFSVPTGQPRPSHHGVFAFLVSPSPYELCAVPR

[16] = Drug metabolism in rat liver microsomes assessed as metabolic rate at 1 uM preincubated for 5 mins before NADPH addition and measured up to 30 mins by LC-MS/MS analysis; format: ADME, Microsome; conditions: 0.5 h
[17] = Half life in rat at 1 mg/kg, iv measured up to 24 hrs by LC-MS/MS analysis; format: ADME, organism-based; conditions: in vivo
[18] = Cytotoxicity in human HuH7 cells assessed as inhibition of cell growth at 3 uM incubated for 72 hrs by CCK8 assay relative to control; format: cell-based, Huh-7; conditions: read-out: GI
CYP3A4 = CYP3A4 (Homo sapiens, UniProt P08684); assay: Inhibition of CYP3A4 in pooled human liver microsomes at 10 uM pre-incubated for 5 mins before NADPH addition and measured after 10 mins by UPLC-MS/MS analysis relative to control; format: ADME
Chain of CYP3A4 (P08684 whole entry): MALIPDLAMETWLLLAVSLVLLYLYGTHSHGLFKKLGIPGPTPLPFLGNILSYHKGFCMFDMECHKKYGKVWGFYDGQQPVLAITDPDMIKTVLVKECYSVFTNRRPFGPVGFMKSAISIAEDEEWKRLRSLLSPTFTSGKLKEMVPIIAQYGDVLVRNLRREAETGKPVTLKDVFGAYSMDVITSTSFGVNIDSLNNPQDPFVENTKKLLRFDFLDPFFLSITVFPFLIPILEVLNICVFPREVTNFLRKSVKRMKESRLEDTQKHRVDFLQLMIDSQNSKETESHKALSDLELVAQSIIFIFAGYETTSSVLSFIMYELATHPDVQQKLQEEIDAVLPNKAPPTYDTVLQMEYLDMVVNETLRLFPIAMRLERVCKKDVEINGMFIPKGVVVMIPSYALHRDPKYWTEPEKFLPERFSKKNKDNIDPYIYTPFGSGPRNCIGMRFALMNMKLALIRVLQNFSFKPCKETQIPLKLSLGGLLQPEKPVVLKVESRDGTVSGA

[19] = Drug level in liver of Wistar rat at 10 mg/kg, po measured up to 8 hrs by LC-MS/MS analysis; format: ADME, organism-based; conditions: in vivo
[20] = Protein binding in rat plasma; format: ADME, cell-free; conditions: read-out: PPB
[21] = Cytotoxicity in human HEK293 cells assessed as inhibition of cell growth at 3 uM incubated for 72 hrs by CCK8 assay relative to control; format: cell-based; conditions: read-out: GI
[22] = AUC (last) in rat at 10 mg/kg, po measured up to 24 hrs by LC-MS/MS analysis; format: ADME, organism-based; set-up: dose 10 mg/kg, time 0 - last, route oral; conditions: in vivo
[23] = Clearance in rat at 1 mg/kg, iv measured up to 24 hrs by LC-MS/MS analysis; format: ADME, organism-based; conditions: in vivo
[24] = AUC(last) in beagle dog at 1 mg/kg, iv measured up to 24 hrs by LC-MS/MS analysis; format: ADME, organism-based, Canis lupus familiaris; set-up: dose 1 mg/kg, route intravenous, time 0 - last; conditions: in vivo
[25] = Half life in beagle dog at 1 mg/kg, iv measured up to 24 hrs by LC-MS/MS analysis; format: ADME, organism-based, Canis lupus familiaris; conditions: in vivo
[26] = AUC (last) in rat at 30 mg/kg, po measured up to 24 hrs by LC-MS/MS analysis; format: ADME, organism-based; set-up: dose 30 mg/kg, time 0 - last, route oral; conditions: in vivo
[27] = Cmax in rat at 100 mg/kg, po measured up to 24 hrs by LC-MS/MS analysis; format: ADME, organism-based; set-up: dose 100 mg/kg, route oral; conditions: in vivo
[28] = AUC (last) in beagle dog at 10 mg/kg, po measured up to 24 hrs by LC-MS/MS analysis; format: ADME, organism-based, Canis lupus familiaris; set-up: dose 10 mg/kg, time 0 - last, route oral; conditions: in vivo
[29] = Volume of distribution at steady state in beagle dog at 1 mg/kg, iv measured up to 24 hrs by LC-MS/MS analysis; format: ADME, organism-based, Canis lupus familiaris; conditions: in vivo, read-out: Vdss
[30] = AUC (last) in rat at 100 mg/kg, po measured up to 24 hrs by LC-MS/MS analysis; format: ADME, organism-based; set-up: dose 100 mg/kg, time 0 - last, route oral; conditions: in vivo
[31] = Clearance in beagle dog at 1 mg/kg, iv measured up to 24 hrs by LC-MS/MS analysis; format: ADME, organism-based, Canis lupus familiaris; conditions: in vivo
[32] = Cmax in rat at 30 mg/kg, po measured up to 24 hrs by LC-MS/MS analysis; format: ADME, organism-based; set-up: dose 30 mg/kg, route oral; conditions: in vivo
[33] = Cmax in beagle dog at 10 mg/kg, po measured up to 24 hrs by LC-MS/MS analysis; format: ADME, organism-based, Canis lupus familiaris; set-up: dose 10 mg/kg, route oral; conditions: in vivo
[34] = Tmax in rat at 30 mg/kg, po measured up to 24 hrs by LC-MS/MS analysis; format: ADME, organism-based; conditions: in vivo
[35] = Tmax in rat at 10 mg/kg, po measured up to 24 hrs by LC-MS/MS analysis; format: ADME, organism-based; conditions: in vivo
[36] = Tmax in rat at 100 mg/kg, po measured up to 24 hrs by LC-MS/MS analysis; format: ADME, organism-based; conditions: in vivo
[37] = Oral bioavailability in beagle dog at 10 mg/kg measured up to 24 hrs by LC-MS/MS analysis; format: ADME, organism-based, Canis lupus familiaris; conditions: in vivo

Row | Compound | inhibition [2] | inhibition at 10 min, 10 µM (CYP2C9) | inhibition at 72 h, 3 µM [5] | concentration at 4 h [6] | Vd [7] | Kp at 4 h [8] | inhibition at 72 h, 10 µM [9] | Drug metabolism [10] | concentration at 4 h [11] | AUC(0-t) at 24 h [12] | Cmax [13] | inhibition at 72 h, 10 µM [14] | bioavailability [15] | inhibition at 10 min, 10 µM (CYP2D6) | Drug metabolism [16] | half-life [17] | inhibition at 72 h, 3 µM [18] | inhibition at 10 min, 10 µM (CYP3A4) | Drug uptake [19] | inhibition at 72 h, 3 µM [21] | also measured
1 | COC(=O)N[C@H](C(=O)N1CCC[C@H]1c1ncc(-c2cc3c(cc2OC)C2(CC3(C)C)CC(C)(C)c3cc(-c4cnc([C@@H]5CCCN5C(=O)[C@@H](NC(=O)OC)C(C)C)[nH]4)c(OC)cc32)[nH]1)C(C)C | 13% |  |  |  |  |  |  |  |  |  |  |  |  |  |  |  |  |  |  |  | inhibition [1]: 79%
2 | COC(=O)N[C@H](C(=O)N1CCC[C@H]1c1ncc(-c2ccc3c(c2)CC2c4ccc(-c5cnc([C@@H]6CCCN6C(=O)[C@@H](NC(=O)OC)C(C)C)[nH]5)cc4CC32)[nH]1)C(C)C (some centres not stated) | 11% |  |  |  |  |  |  |  |  |  |  |  |  |  |  |  |  |  |  |  | inhibition [3]: 75%
3 | COC(=O)N[C@H](C(=O)N1CCC[C@H]1c1nc(Cl)c(-c2ccc3c(c2)OCC(C)(C)COc2cc(-c4[nH]c([C@@H]5CCCN5C(=O)[C@@H](NC(=O)OC)C(C)C)nc4Cl)ccc2-3)[nH]1)C(C)C |  | 29% | 23% | 7100 nM | 10 L/kg | 11 | 27% | 0 nmol/min/mg | 640 nM | 0.43 µM·h | 500 nM | 63% | 56% | 6% | 0 nmol/min/mg | 3.8 h | 25% | 6% | Active | 44% | fraction unbound [4]: < 0.01; fraction unbound [20]: < 0.01; AUC(0-t) at 24 h [22]: 2.4 µM·h; clearance [23]: 37 mL/min/kg
4 | COC(=O)N[C@H](C(=O)N1CCC[C@H]1c1ncc(-c2ccc3c(c2)OCc2cc(-c4cnc([C@@H]5CCCN5C(=O)[C@@H](NC(=O)OC)C(C)C)[nH]4)sc2-3)[nH]1)C(C)C |  | 41% | 0% | 7900 nM | 1.5 L/kg | 5.5 | 16% | 0.02 nmol/min/mg | 1390 nM | 2 µM·h | 300 to 2000 nM | 22% | 30% | 13% | 0.01 nmol/min/mg | 1.9 h | 3% | 22% | Active | 14% | AUC(0-t) at 24 h [24]: 3 µM·h; half-life [25]: 3 h; AUC(0-t) at 24 h [26]: 28 µM·h; Cmax [27]: 7000 nM; AUC(0-t) at 24 h [28]: 40 µM·h; Vd [29]: 2 L/kg; AUC(0-t) at 24 h [30]: 76 µM·h; clearance [31]: 7 mL/min/kg; Cmax [32]: 2000 nM; Cmax [33]: 3000 nM; Tmax [34]: 4 to 6 h; Tmax [35]: 2 to 4 h; Tmax [36]: 2 to 6 h; bioavailability [37]: 100%; AUC(0-t) at 24 h [22]: 2 to 6 µM·h; clearance [23]: 10 mL/min/kg
